This note sets out measurements from patent US20260174819A1, “COMPOSITIONS AND METHODS FOR OBTAINING HUMAN ALVEOLAR CELLS AND RELATED USES THEREOF” (The Regents of the University of Michigan, priority 2022, published 2026).

The test system of assay [1] is canalicular stage human lung ALI explants. Kind of assay: Lung ALI explant culture, immunofluorescent staining. Particulars: for SFTPA staining in ProSFTPC-positive cells: relative to untreated explants. Type of assay: cell-based. As to the method:
Human fetal lung within the canalicular stage of lung development was utilized for lung ALI explant cultures (specifically 15-18.5 weeks post conception). Small pieces (<0.5 cm diameter) were dissected from distal regions of the lung and placed on Nucleopore Track-Etched Membrane disks (13 mm, 8 μm pore, poly-carbonate) (Sigma, Cat #WHA110414) floating on top of 500 μl of human lung ALI explant media (Advanced DMEM/F-12 (Thermo Fisher, Cat #12634010), 2 mM Glutamax (Thermo Fisher, Cat #35050061), 15 mM HEPES (Corning, Cat #25060CI), 1× B27 Supplement (Thermo Fisher, Cat #17504044) 1×N-2 Supplement (Thermo Fisher, Cat #17502048), 100 U/mL penicillin-streptomycin (Thermo Fisher, Cat #15140122)) in a 24-well tissue culture plate (Thermo Fisher, Cat #12565163). Where indicated, 1 μM A-8301 (APE×BIO Cat #A3133), 100 ng/mL rhTGFβ1 (R&D Systems Cat #240-B-002), 100 ng/mL rhNOGGIN (produced in-house) or 100 ng/mL BMP4 (R&D Systems Cat #314-BP-050) was added to human lung ALI explant media.
All samples processed were fixed for 24 h in 10% Neutral Buffered Formalin at room temperature with gentle agitation. Samples were washed 3× with UltraPure DNase/RNase-free distilled water (Thermo Fisher, Cat #10977015) and dehydrated through an alcohol series consisting of 25%, 50%, 75% and 100% methanol, followed by 100% and 70% ethanol. For tissue and explants each step was performed for at least 1 h. For organoids each step was performed for at least 15 min. In the case of explants and organoids, specimens were embedded in Histogel (VWR Cat #83009-992) prior to paraffin processing. Samples were paraffin processed in an automated tissue processor through the following series: 70%, 80%, 2× 95%, 3× 100% ethanol, 3× xylene and 3× paraffin with 1 h for each step. Tissue was embedded into paraffin blocks and cut into 5 μm-thick sections onto charged glass slides using a microtome. Slides were baked for 1 h at 60° C. immediately prior to staining.
Slides were treated with 2× HistoClear II (National Diagnostics, Cat #HS-202) washes, then rehydrated through washes in 100%, 95%, 70%, 30% ethanol for 4 min each, with buffer exchanges performed halfway through washing. Then, slides were washed 2×5 min with ddH20. Antigen retrieval in 1× Sodium Citrate Buffer (100 mM trisodium citrate (Sigma, Cat #S1804), 0.5% Tween-20 (Thermo Fisher, Cat #BP337), pH 6.0) for 20 min at 99° C. After washing 3× in ddH20 slides were blocked for 1 h with blocking solution: 5% normal donkey serum (Sigma, Cat #D9663), 0.1% Tween-20 in PBS. Slides were then incubated in primary antibodies diluted in blocking solution in a humidified chamber at 4° C. overnight. Slides were washed 3× in 1×PBS for 10 min each. Slides were incubated with secondary antibodies and DAPI (1 μg/mL) diluted in blocking solution for 1 h, then were washed 3× in 1×PBS for 5 min each. Slides were mounted in ProLong Gold (Thermo Fisher, Cat #P369300) and imaged within 2 weeks. Primary and secondary antibodies used in this study are available in Table 1.

The next assay concerns BTP organoids. The experiment in a line: BTP organoid differentiation, RT-qPCR of AT2 and BTP markers. Type of assay: cell-based, human. Particulars: 7 days. As to the method: Primary BTP organoid cultures from 15-18.5 weeks post conception lung tissue were established and maintained as previously reported^3,21,22. BTP organoids were maintained in maintenance media (described below) under 8 mg/mL Matrigel (Corning Cat #354234), fed every three days and passaged 1:3 every 7-10 days by needle sheering.
Differentiations were performed on BTP organoids at passage three by removing maintenance media consisting of: DMEM/F-12 (Corning, Cat #10-092-CV), 100 U/mL penicillin-streptomycin (Thermo Fisher, Cat #15140122), 1×B-27 supplement (Thermo Fisher, Cat #17504044), 1× N2 supplement (Thermo Fisher, Cat #17502048), 0.05% BSA (Sigma, Cat #A9647), 50 μg/mL L-ascorbic acid (Sigma,Cat #A4544), 0.4 μM 1-Thioglycerol (Sigma, Cat #M1753), 50 nM all-trans retinoic acid (Sigma, Cat #R2625), 10 ng/ml recombinant human FGF7 (R&D Systems, Cat #251-KG), and 3 μM CHIR99021 (APE×BIO, Cat #A3011) and replacing with differentiation media. For data in FIG. 3 multiple differentiation medias were tested, all of which consisted of maintenance media with the addition of 1 μM A-8301 and/or the addition of 100 ng/ml BMP4 and/or removal of all trans retinoic acid. B-27 supplement without vitamin A (Thermo Fisher, Cat #12587010) was used instead of full B-27 supplement in conditions in which all trans retinoic acid was removed. For data in all FIGS. 4, 6, 7, 10 differentiation media consisted of common components: DMEM/F12, 100 U/mL penicillin-streptomycin, 1×B-27 supplement without vitamin A, 1× N2 supplement, 0.05% BSA, 50 μg/mL L-ascorbic acid, 0.4 μM 1-Thioglycerol. 10 ng/ml recombinant human FGF7, and 3 μM CHIR99021. To make CK+AB differentiation media 1 μM A-8301 and 100 ng/mL BMP4 was added. To make CKDCI differentiation media 50 nM Dexamethasone (Sigma, Cat #D4902), […] 3-isobutyl-1-methylxanthine (Sigma, Cat #I5879) and […] 8-Bromoadensoine 3′,5′-cyclic monophosphate sodium salt (Sigma, Cat #B7880) was added. Differentiations were fed every three days and passaged at seven day intervals by needle sheering.
(§1) Organoids were dislodged from Matrigel using a P1000 tip, pelleted in a 1.5 mL tube and flash frozen by placing the tube in a small amount of liquid nitrogen with minimal residual media. RNA was isolated from frozen pellets using the MagMax-96 Total RNA Isolation kit (Thermo Fisher, Cat #AM1830) according to the manufacturer's recommendations. RNA quality and yield was determined on a Nanodrop 2000 spectrophotometer. Reverse Transcription was performed in triplicate for each biological replicate using the SuperScript VILO cDNA kit with 200 ng RNA per reaction. After Reverse Transcription, cDNA was diluted 1:2 with DNAse/RNAse free water and 1/40th of the final reaction was used for each RT-qPCR measurement. RT-qPCR measurements were performed using a Step One Plus Real-Time PCR System (Thermo Fisher, Cat #43765592 R) using QuantiTect SYBR Green qPCR Master Mix (Qiagen, Cat #204145) with primers at a concentration of 500 nM. Sequences for RT-qPCR primers used in this manuscript are in Table 2.
For RT-qPCR data arbitrary units (AUs) of gene expression was first calculated using the following equation: 2^(GAPDHCt-TargetCt)×10,000. For FIG. 12B, FIG. 5D, FIG. 7I, FIG. 9E, and FIG. 10H the AUs for each biological replicate were calculated from the mean of technical replicates and a ratio paired t-test was performed between the two conditions compared to determine statistical significance (p). […] For FIG. 3E AUs were normalized to AUs of expression in progenitor media for each biological replicate to obtain fold change. Repeated measures one-way ANOVA was performed with Dunnett's correction on linearized (log-transformed) fold change values comparing all experimental conditions to progenitor medium to determine p.

Assay [2] has as its system CK+AB induced AT2-like organoids. Kind of assay: Expansion of AT2-like organoids in SFFF media (growth, RT-qPCR, IF, FACS). Type of assay: cell-based, human. Conditions: for MUC5AC expression (RT-qPCR) on removal of the component from SFFF / SFTPC expression (RT-qPCR) on removal of the component from SFFF: SFFF lacking the component vs SFFF. As to the method: After 21 days of differentiation in CK+AB or CK+DCI organoids were passaged and fed with SFFF or SFFF without FGF10 consisting of: Advanced DMEM/F12, 2 mM Glutamax, 1× B27 supplement, 100 U/mL penicillin-streptomycin, 15 mM HEPES, 0.05% BSA, 10 μM TGFβ inhibitor SB43152 (APExBIO, Cat #A8249), 1 μM p38 MAP kinase inhibitor BIRB796 (APExBIO, Cat #A5639), 3 μM CHIR99021, 50 ng/mL rhEGF (R&D Systems, Cat #236-EG) with (SFFF) or without the addition of 10 ng/mL FGF10 (produced in-house). Organoids were passaged every 7-14 days at a ratio of 1:6 by needle sheering^93.
as §1
Organoids were retrieved from Matrigel by mechanical dissociation with a P1000, washed 2× with 1 mL PBS and, resuspended with TrypLE and incubated at 37° C. until a single cell suspension was obtained with light pipetting (typically 10 min). Cells were washed 3× with 1 mL of FACS buffer consisting of PBS, 2% BSA and 10 μM Y-27632 (APE×BIO, Cat #3008) and then filtered through a […] mesh. Cells were stained for 1 h on ice in FACS buffer with a 1:60 dilution of anti HTII-280 IgM antibody. Cells were washed 3× with 1 mL of FACS buffer before 30 min of staining in FACS buffer with a 1:1000 dilution of anti-mouse IgM-Alexaflour-488 secondary antibody (Jackson Immunoresearch, Cat #715545140) on ice. After 3× washes with 1 mL of FACS buffer cells were suspended in FACS buffer with 1:4000 dilution of DAPI. […] All steps were carried out at 4° C. unless otherwise indicated. Cells were pelleted at 500×G for 5 min in swing bucket rotors. FACS was performed on either a Sony MA900 or the ThermoFisher Bigfoot Spectral Cell Sorter and analyzed in FlowJo v10.

Setting [3] is: added to bud tip progenitor media, vs progenitor media.
Where [4] appears, read: CK+AB in absence vs presence of ATRA.

On to `Cc1cccc(-c2nn(C(=S)Nc3ccccc3)cc2-c2ccnc3ccccc23)n1` [A-8301], for which, in assay [1] (day 6 ALI explants), the “SFTPA staining in ProSFTPC-positive cells” value (from here on “SFTPA staining”) was “increased”. Also, in the assay on BTP organoids (setting [3]), the “BTP marker SOX9 expression (RT-qPCR)” value is given as “Neither treatment alone significantly reduced”, the “SFTPA1 expression (RT-qPCR)” value is given as “significantly increased” and the “SFTPC expression (RT-qPCR)” value is “significantly increased”.

Consider “TGFβ1: recombinant TGFβ1, activator of TGFβ-signaling, 100 ng/mL”, for which the “TP63 expression in epithelial cells” value in assay [1] (ALI explants) is on record as “most epithelial cells expressing TP63”. In assay [1] (day 6 ALI explants), the ProSFTPC staining result was “reduced” and the “SFTPA staining” value is “barely detectible”.

Turning to `CC1=C(/C=C/C(C)=C/C=C/C(C)=C/C(=O)O)C(C)(C)CCC1` [ATRA, all-trans retinoic acid], in the assay on BTP organoids (setting [4]), the “SFTPB expression (RT-qPCR) on removal of ATRA” value was “reduced”, the “SFTPC expression (RT-qPCR) on removal of ATRA” value was “significantly enhancing” and the “SOX9 expression (RT-qPCR) on removal of ATRA” value is reported as “reducing”.

With `Cc1ccc(-n2nc(C(C)(C)C)cc2NC(=O)Nc2ccc(OCCN3CCOCC3)c3ccccc23)cc1` [BIRB797, reference compound], in assay [2], the “MUC5AC expression (RT-qPCR) on removal of the component from SFFF” value is recorded as “increased” and the “SFTPC expression (RT-qPCR) on removal of the component from SFFF” value is on record as “improved expression”.

B1: NOGGIN: recombinant BMP inhibitor NOGGIN, 100 ng/mL, produced in-house (protein, UniProt Q13253 28-232, looked up)
Noggin: QHYLHIRPAPSDNLPLVDLIEHPDPIFDPKEKDLNETLLRSLLGGHYDPGFMATSPPEDRPGGGGGAAGGAEDLAELDQLLRQRPSGAMPSEIKGLEFSEGLAQGKKQRLSKKLRRKLQMWLWSQTFCPVLYAWNDLGSRFWPRYVKVGSCFSKRSCSVPEGMVCKPSKSVHLTVLRWRCQRRGGQRCGWIPIQYPIISECKCSC
In the case of B1, in assay [1] (day 6 ALI explants, 100 ng/mL NOGGIN), the phosphoSMAD1/5/8 staining result is listed as “blocked”. The “SFTPA staining” value in assay [1] (day 6 ALI explants) is “did not change”.

B2: FGF10: recombinant human FGF10, 10 ng/mL, produced in-house, component of SFFF (protein, UniProt O15520 38-208, looked up)
Fibroblast growth factor 10: QALGQDMVSPEATNSSSSSFSSPSSAGRHVRSYNHLQGDVRWRKLFSFTKYFLKIEKNGKVSGTKKENCPYSILEITSVEIGVVAVKAINSNYYLAMNKKGKLYGSKEFNNDCKLKERIEENGYNTYASFNWQHNGRQMYVALNGKGAPRRGQKTRRKNTSAHFLPMVVHS
B2: in assay [2], the “MUC5AC expression (RT-qPCR) on removal of the component from SFFF” value is reported as “reduction of MUC5AC to near-zero levels” and the “SFTPC expression (RT-qPCR) on removal of the component from SFFF” value is “improved expression”. Also, the “AT2 phenotype of CK+AB differentiated AT2-like cells” value in assay [2] (SFFF with vs without FGF10) was “repressed”.

B3: BMP4: recombinant BMP4, BMP-activator, 100 ng/mL (R&D Systems) (protein, UniProt P12644 293-408, looked up)
Bone morphogenetic protein 4: SPKHHSQRARKKNKNCRRHSLYVDFSDVGWNDWIVAPPGYQAFYCHGDCPFPLADHLNSTNHAIVQTLVNSVNSSIPKACCVPTELSAISMLYLDEYDKVVLKNYQEMVVEGCGCR
For the molecule B3, the “SFTPA staining” value in assay [1] (day 6 ALI explants) is “robust and readily detectable levels”. In addition, in the assay on BTP organoids (setting [3]), the “BTP marker SOX9 expression (RT-qPCR)” value is recorded as “Neither treatment alone significantly reduced”, the “HOPX expression (RT-qPCR)” value was “significantly increased”, the “LAMP3 expression (RT-qPCR)” value is listed as “significantly increased” and the “SFTPA1 expression (RT-qPCR)” value was “significantly increased”. For the same molecule, in the assay on BTP organoids (setting [3]), the “SFTPB expression (RT-qPCR)” value is “significantly increased”.
